Results published in article PMC12127288, “Engineering of antimicrobial peptide Brevinin-1pl: arginine, lysine, and histidine substitutions enhance antimicrobial-anticancer efficacy with reduced cytotoxicity” (Frontiers in Chemistry, 2025).
Converted amounts (≈) assume the structure as drawn. Positions of bridges follow the written chain, without caps; N, C: chain ends. Residues, ends and D or L forms follow the SMILES beside them.

Key:
E. faecium 12697 = assay type: cell-based, Enterococcus faecalis NCTC 12697 (E. faecium 12697); conditions: 12697, 18 h
Experimental: (§1) The minimal inhibitory concentration (MIC) and minimal bactericidal concentration (MBC) values of the peptides were determined by established protocols to evaluate their antimicrobial activities ([Lin et al., 2021]). The MIC value was the lowest concentration of a peptide that inhibits visible bacterial growth after incubating 18 h (CLSI standard). Once the MIC values were determined, an aliquot from the bacterial culture exposed to the peptide at or above its MIC value was inoculated on a Mueller Hinton agar (MHA) and was incubated at 37 for 18 h (CLSI standard). The MBC value was the lowest concentration of a peptide that kills 99.9% of bacteria. Antimicrobial activities of synthetic peptides were assessed by determination of MIC and MBC values using eight kinds of bacteria and yeast: Gram-positive bacteria, Staphylococcus aureus ATCC 6538 (S. aureus 6538), Methicillin-resistant Staphylococcus aureus NCTC 12493 (MRSA 12493), and Enterococcus faecalis NCTC 12697 (E. faecium 12697); Gram-negative bacteria, Escherichia coli ATCC 8739 (E. coli 8739), Pseudomonas aeruginosa ATCC CRM 9027 (P. aeruginosa 9027), Klebsiella pneumoniae ATCC 43816 (K. pneumoniae 43816), and Acinetobacter baumannii BAA 747 (A. baumannii 747); and pathogenic yeast, Candida albicans ATCC 10231 (C. albicans 10231).

[1] = tested on: Candida albicans ATCC 10231; assay type: cell-based; conditions: ATCC 10231, 18 h
Experimental: as §1

[2] = tested on: Klebsiella pneumoniae ATCC 43816; assay type: cell-based; conditions: ATCC 43816, 18 h
Experimental: as §1

[3] = tested on: Staphylococcus aureus ATCC 6538; assay type: cell-based; conditions: ATCC 6538, 18 h
Experimental: as §1

[4] = tested on: Methicillin-resistant Staphylococcus aureus NCTC 12493; assay type: cell-based; conditions: NCTC 12493, 18 h
Experimental: as §1

[5] = tested on: Pseudomonas aeruginosa ATCC CRM 9027; assay type: cell-based; conditions: ATCC CRM 9027, 18 h
Experimental: as §1

[6] = tested on: Acinetobacter baumannii BAA 747; assay type: cell-based; conditions: BAA 747, 18 h
Experimental: as §1

[7] = tested on: Escherichia coli ATCC 8739; assay type: cell-based; conditions: ATCC 8739, 18 h
Experimental: as §1

HaCaT cells = assay type: cell-based, human
Experimental: Lung cancer cell line, H838 (ATCC, United States), breast cancer cell line, MCF7 (ATCC, United States), and human immortalized keratinocytes, HaCat (Caltag Medsystems, United Kingdom), were used in this experiment to test the anti-proliferation activity of peptides brevine-1pl and its four analogues. H838 cells were maintained in RPMI-1640 medium (Gibco, United Kingdom), whereas MCF-7 and HaCaT cells were cultured in DMEM medium (Gibco, United Kingdom), supplemented with 10% (v/v) fetal bovine serum (FBS, Gibco, United Kingdom) and 1% (v/v) penicillin-streptomycin (PS, Gibco, United Kingdom). Cells were seeded in 96-well plates at densities of 8,000 cells/well for H838 and MCF-7 and 10,000 cells/well for HaCaT, followed by overnight incubation at 37°C under 5% CO2 to allow adherence. Following attachment, cells were exposed to peptide solutions at final concentrations ranging from 10^–4 M to 10^–9 M. After 22 h of treatment, 0.5 mg/ml MTT solution was added to each well and incubated at 37°C for 4 h. The medium was then aspirated, and 100 μl of DMSO was added to solubilize formazan crystals. Plates were agitated for 15 min in a shaking incubator, and absorbance was measured at 570 nm using a Synergy HT microplate reader. […] Cell viability (%) was calculated using the formula: Viability (%) = (ODtreated − ODblank)/(ODcontrol− ODblank) *100. […]

horse erythrocytes = assay type: cell-based
Experimental: The hemolytic activity of the peptides was assessed using horse erythrocytes. Horse erythrocytes were selected due to their similarity to human erythrocytes in membrane composition and widespread use in AMP studies for standardization. Following a previously established protocol ([Gao et al., 2016]). Peptide solutions with final concentrations ranging from 1 µM to 128 µM were incubated with 2% horse erythrocytes at 37°C for 2 h. Triton X-100 (1%) served as the positive control, while sterile PBS was used as the blank control. After that, the peptide-horse erythrocytes mixture was centrifuged at 930 g for 10 min, and the absorbance at 570 nm of the supernatant was measured. The hemolysis rate was calculated using the formal: Percentage Hemolysis = (Absorbance of sample − Absorbance of blank)/(Absorbance of Positive- Absorbance of Blank) × 100%

CC[C@H](C)[C@H](NC(=O)[C@H](CCCCN)NC(=O)[C@H](CCCCN)NC(=O)[C@H](CC(C)C)NC(=O)[C@@H](NC(=O)[C@H](CCCCN)NC(=O)[C@H](C)NC(=O)[C@H](C)NC(=O)[C@@H](NC(=O)CNC(=O)[C@H](C)NC(=O)[C@@H](NC(=O)[C@@H](NC(=O)[C@@H]1CCCN1C(=O)[C@H](Cc1ccccc1)NC(=O)[C@@H](N)Cc1ccccc1)[C@@H](C)CC)C(C)C)C(C)C)C(C)C)C(=O)N[C@@H](Cc1ccccc1)C(=O)N[C@H]1CSSC[C@@H](C(=O)O)NC(=O)[C@H](CCCNC(=N)N)NC(=O)[C@H](CCCNC(=N)N)NC(=O)[C@H](CO)NC(=O)[C@H]([C@@H](C)CC)NC(=O)[C@H]([C@@H](C)O)NC1=O [brevinin-1pl-2R] (H-FFPIVAGVAAKVLKKIFCTISRRC-OH; disulfide 18-24)
MBC (E. faecium 12697): 4 µM (≈ 10.7 µg/mL)
MIC (E. faecium 12697): 4 µM (≈ 10.7 µg/mL)
MBC [1]: > 128 µM
MIC [1]: > 128 µM
MBC [2]: 8 µM (≈ 21.3 µg/mL)
MIC [2]: 8 µM (≈ 21.3 µg/mL)
MBC [3]: 2 µM (≈ 5.33 µg/mL)
MIC [3]: 2 µM (≈ 5.33 µg/mL)
MBC [4]: 2 µM (≈ 5.33 µg/mL)
MIC [4]: 2 µM (≈ 5.33 µg/mL)
MBC [5]: 8 µM (≈ 21.3 µg/mL)
MIC [5]: 8 µM (≈ 21.3 µg/mL)
MBC [6]: 16 µM (≈ 42.7 µg/mL)
MIC [6]: 8 µM (≈ 21.3 µg/mL)
MBC [7]: 4 µM (≈ 10.7 µg/mL)
MIC [7]: 4 µM (≈ 10.7 µg/mL)

CC[C@H](C)[C@H](NC(=O)[C@H](Cc1c[nH]cn1)NC(=O)[C@H](Cc1c[nH]cn1)NC(=O)[C@H](CC(C)C)NC(=O)[C@@H](NC(=O)[C@H](Cc1c[nH]cn1)NC(=O)[C@H](C)NC(=O)[C@H](C)NC(=O)[C@@H](NC(=O)CNC(=O)[C@H](C)NC(=O)[C@@H](NC(=O)[C@@H](NC(=O)[C@@H]1CCCN1C(=O)[C@H](Cc1ccccc1)NC(=O)[C@@H](N)Cc1ccccc1)[C@@H](C)CC)C(C)C)C(C)C)C(C)C)C(=O)N[C@@H](Cc1ccccc1)C(=O)N[C@H]1CSSC[C@@H](C(=O)O)NC(=O)[C@H](CCCCN)NC(=O)[C@H](CCCCN)NC(=O)[C@H](CO)NC(=O)[C@H]([C@@H](C)CC)NC(=O)[C@H]([C@@H](C)O)NC1=O [brevinin-1pl-3H] (H-FFPIVAGVAAHVLHHIFCTISKKC-OH; disulfide 18-24)
Cytotoxicity toward normal HaCaT cells (in words) (HaCaT cells): low cytotoxicity
Hemolytic activity at 16 μM (in words) (horse erythrocytes): low hemolytic activity
MBC (E. faecium 12697): 32 µM (≈ 84.4 µg/mL)
MIC (E. faecium 12697): 16 µM (≈ 42.2 µg/mL)
MBC [1]: > 128 µM
MIC [1]: 64 µM (≈ 169 µg/mL)
MBC [2]: 64 µM (≈ 169 µg/mL)
MIC [2]: 32 µM (≈ 84.4 µg/mL)
MBC [3]: 8 µM (≈ 21.1 µg/mL)
MIC [3]: 8 µM (≈ 21.1 µg/mL)
MBC [4]: 4/4 µM
MBC [5]: 64 µM (≈ 169 µg/mL)
MIC [5]: 64 µM (≈ 169 µg/mL)
MBC [6]: > 128 µM
MIC [6]: > 128 µM
MBC [7]: 32 µM (≈ 84.4 µg/mL)
MIC [7]: 32 µM (≈ 84.4 µg/mL)

CC[C@H](C)[C@H](NC(=O)[C@H](CCCNC(=N)N)NC(=O)[C@H](CCCNC(=N)N)NC(=O)[C@H](CC(C)C)NC(=O)[C@@H](NC(=O)[C@H](CCCNC(=N)N)NC(=O)[C@H](C)NC(=O)[C@H](C)NC(=O)[C@@H](NC(=O)CNC(=O)[C@H](C)NC(=O)[C@@H](NC(=O)[C@@H](NC(=O)[C@@H]1CCCN1C(=O)[C@H](Cc1ccccc1)NC(=O)[C@@H](N)Cc1ccccc1)[C@@H](C)CC)C(C)C)C(C)C)C(C)C)C(=O)N[C@@H](Cc1ccccc1)C(=O)N[C@H]1CSSC[C@@H](C(=O)O)NC(=O)[C@H](CCCNC(=N)N)NC(=O)[C@H](CCCNC(=N)N)NC(=O)[C@H](CO)NC(=O)[C@H]([C@@H](C)CC)NC(=O)[C@H]([C@@H](C)O)NC1=O [brevinin-1pl-5R] (H-FFPIVAGVAARVLRRIFCTISRRC-OH; disulfide 18-24)
MBC (E. faecium 12697): 2 µM (≈ 5.5 µg/mL)
MIC (E. faecium 12697): 2 µM (≈ 5.5 µg/mL)
MBC [1]: > 128 µM
MIC [1]: > 128 µM
MBC [2]: 16 µM (≈ 44 µg/mL)
MIC [2]: 16 µM (≈ 44 µg/mL)
MBC [3]: 2 µM (≈ 5.5 µg/mL)
MIC [3]: 2 µM (≈ 5.5 µg/mL)
MBC [4]: 2 µM (≈ 5.5 µg/mL)
MIC [4]: 2 µM (≈ 5.5 µg/mL)
MBC [5]: 16 µM (≈ 44 µg/mL)
MIC [5]: 16 µM (≈ 44 µg/mL)
MBC [6]: 32 µM (≈ 88 µg/mL)
MIC [6]: 16 µM (≈ 44 µg/mL)
MBC [7]: 8 µM (≈ 22 µg/mL)
MIC [7]: 8 µM (≈ 22 µg/mL)

CC[C@H](C)[C@H](NC(=O)[C@H](CCCCN)NC(=O)[C@H](CCCCN)NC(=O)[C@H](CC(C)C)NC(=O)[C@@H](NC(=O)[C@H](CCCCN)NC(=O)[C@H](C)NC(=O)[C@H](C)NC(=O)[C@@H](NC(=O)CNC(=O)[C@H](C)NC(=O)[C@@H](NC(=O)[C@H](CCCCN)NC(=O)[C@@H]1CCCN1C(=O)[C@H](Cc1ccccc1)NC(=O)[C@@H](N)Cc1ccccc1)C(C)C)C(C)C)C(C)C)C(=O)N[C@@H](Cc1ccccc1)C(=O)N[C@H]1CSSC[C@@H](C(=O)O)NC(=O)[C@H](CCCCN)NC(=O)[C@H](CCCCN)NC(=O)[C@H](CO)NC(=O)[C@H]([C@@H](C)CC)NC(=O)[C@H]([C@@H](C)O)NC1=O [brevinin-1pl-6K] (H-FFPKVAGVAAKVLKKIFCTISKKC-OH; disulfide 18-24)
MBC (E. faecium 12697): 16 µM (≈ 42 µg/mL)
MIC (E. faecium 12697): 16 µM (≈ 42 µg/mL)
MBC [1]: > 128 µM
MIC [1]: > 128 µM
MBC [2]: 8 µM (≈ 21 µg/mL)
MIC [2]: 8 µM (≈ 21 µg/mL)
MBC [3]: 4 µM (≈ 10.5 µg/mL)
MIC [3]: 4 µM (≈ 10.5 µg/mL)
MBC [4]: 4 µM (≈ 10.5 µg/mL)
MIC [4]: 4 µM (≈ 10.5 µg/mL)
MBC [5]: 8 µM (≈ 21 µg/mL)
MIC [5]: 8 µM (≈ 21 µg/mL)
MBC [6]: 16 µM (≈ 42 µg/mL)
MIC [6]: 16 µM (≈ 42 µg/mL)
MBC [7]: 4 µM (≈ 10.5 µg/mL)
MIC [7]: 4 µM (≈ 10.5 µg/mL)

CC[C@H](C)[C@H](NC(=O)[C@H](CCCCN)NC(=O)[C@H](CCCCN)NC(=O)[C@H](CC(C)C)NC(=O)[C@@H](NC(=O)[C@H](CCCCN)NC(=O)[C@H](C)NC(=O)[C@H](C)NC(=O)[C@@H](NC(=O)CNC(=O)[C@H](C)NC(=O)[C@@H](NC(=O)[C@@H](NC(=O)[C@@H]1CCCN1C(=O)[C@H](Cc1ccccc1)NC(=O)[C@@H](N)Cc1ccccc1)[C@@H](C)CC)C(C)C)C(C)C)C(C)C)C(=O)N[C@@H](Cc1ccccc1)C(=O)N[C@H]1CSSC[C@@H](C(=O)O)NC(=O)[C@H](CCCCN)NC(=O)[C@H](CCCCN)NC(=O)[C@H](CO)NC(=O)[C@H]([C@@H](C)CC)NC(=O)[C@H]([C@@H](C)O)NC1=O [brevinin-1pl] (H-FFPIVAGVAAKVLKKIFCTISKKC-OH; disulfide 18-24)
MBC (E. faecium 12697): 4 µM (≈ 10.4 µg/mL)
MIC (E. faecium 12697): 4 µM (≈ 10.4 µg/mL)
MBC [1]: > 128 µM
MIC [1]: > 128 µM
MBC [2]: 8 µM (≈ 20.9 µg/mL)
MIC [2]: 8 µM (≈ 20.9 µg/mL)
MBC [3]: 2 µM (≈ 5.22 µg/mL)
MIC [3]: 2 µM (≈ 5.22 µg/mL)
MBC [4]: 2 µM (≈ 5.22 µg/mL)
MIC [4]: 2 µM (≈ 5.22 µg/mL)
MBC [5]: 16 µM (≈ 41.8 µg/mL)
MIC [5]: 8 µM (≈ 20.9 µg/mL)
MBC [6]: 16 µM (≈ 41.8 µg/mL)
MIC [6]: 8 µM (≈ 20.9 µg/mL)
MBC [7]: 4 µM (≈ 10.4 µg/mL)
MIC [7]: 4 µM (≈ 10.4 µg/mL)
